Test results published in patent US10888864B2, “Electrochemical metabolic activity detecting device” (The Governing Council of the University of Toronto, priority 2014, dated 2021).
Converted amounts (≈) assume the structure as drawn.

Legend:
E. coli (UPEC) = test: on-chip electrochemical (resazurin) antibiotic susceptibility assay in undiluted urine; assay type: cell-based, Escherichia coli
Protocol: (§1) The performance of the example device for electrochemical detection in urine was investigated. Human urine (BioreclamationlVT) was centrifuged at 5000 g for 5 min to remove large particulates. E. coli and K. pneumoniae were diluted to 100 cfu/μL and spiked in the urine. Samples (200 μL) were introduced at 20 μL/min. […] Air was flushed through the device to form the wells followed by FC-40 (200 μL) (Sigma Aldrich, St. Louis, Mo.). Thus the total volume of all solutions introduced is 600 μL which requires 30 min to process at 20 μL/min. The device was incubated in a water bath at 37° C. for 1 hour. 10 minutes were required to scan the leads. Thus the total time for the assay from sample introduction to readout was 1 hour and 40 minutes.
(§2) Other studies were carried out to assess the suitability of the example device to rapidly determine the antibiotic resistance profile of bacteria in undiluted urine.
(§3) E. coli (UPEC) and K. pneumoniae present at 100 cfu/μL in undiluted urine were introduced into the example device. After capture, a culture medium, resazurin, and either ampicillin or ciprofloxacin were introduced. FIGS. 5C and 5D show the electrochemical signal obtained as a function of antibiotic concentration after a 1 hour incubation at 37° C.
As this strain produces a beta lactamase, resistance to ampicillin, a beta-lactam antibiotic is expected. […]

K. pneumoniae [1] = test: time required for antibiotics to hinder metabolic activity (resazurin fluorescence); assay type: cell-based, Klebsiella pneumoniae; conditions: K. pneumoniae 1×10^5 cfu/μL, antibiotic 100 μg/mL, LB media, 1 mM resazurin, 37° C., FIG. 16
Protocol: In order to choose a suitable incubation period for the susceptibility test, the time required for the antibiotics to begin inhibiting bacterial metabolic activity was investigated. […] The increase in fluorescence induced by the conversion of resazurin by metabolically active bacteria was recorded.

K. pneumoniae [2] = test: standard microdilution assay with a 24 hour incubation; assay type: cell-based, Klebsiella pneumoniae; conditions: FIG. 5B; for MIC90: Klebsiella pneumoniae, 24 hour incubation
Protocol: (§4) An antibiotic susceptibility microdilution assay was also performed using the example device. […] After 24 hours, the absorbance at 600 nm was measured.
(§5) As this strain produces a beta lactamase, resistance to ampicillin, a beta-lactam antibiotic is expected.

E. coli [3] = test: as above; assay type: cell-based, Escherichia coli; conditions: absorbance at 600 nm, FIG. 5A
Protocol: as §4, §5

K. pneumoniae [4] = test: on-chip electrochemical (resazurin) antibiotic susceptibility assay in undiluted urine; assay type: cell-based, Klebsiella pneumoniae; conditions: K. pneumoniae 100 cfu/μL in undiluted urine, 1 hour incubation at 37° C., FIG. 5D
Protocol: as §1, §2, §3, §5

E. coli [5] = test: on-chip electrochemical antibiotic susceptibility assay in unpurified urine; assay type: cell-based, Escherichia coli; conditions: E. coli 100 cfu/μL in undiluted unpurified urine, 10 μm pre-filter, 37° C. for 1 hour, FIG. 5E
Protocol: The performance of the example device was also investigated for electrochemical detection in unpurified urine. E. coli were diluted to 100 cfu/μL and spiked in the unpurified human urine (BioreclamationlVT). The spiked urine (200 μL) was passed through a 10 μm filter to remove large particulates and directly introduced at 20 μL/min into the chip. […] Air was flushed through the device to form the wells followed by FC-40 (Sigma Aldrich, St. Louis, Mo.). The device was incubated in a water bath at 37° C.
A series of experiments were also performed to determine the antibiotic susceptibility of bacteria in unpurified urine. […] Currents are normalized to the maximum value. Error bars represent standard error.
E. coli were spiked directly into undiluted and unpurified urine at 100 cfu/μL. The sample was passed through a 10 μm filter that removed large particulates while allowing bacteria to pass. FIG. 18 illustrates the effect of pre-filter size on recovery of bacteria spiked in undiluted urine. […] No appreciable signal change was found when using a blank control sample of unpurified urine (see FIG. 4, discussed above).

Compound	effect on metabolism of E. coli (electrochemical scan) (E. coli (UPEC); 1 μg/mL antibiotic, E. coli in urine at 100 CFU/μL, 1 mM resazurin, 60 min at 37° C., FIG. 19B)	fluorescence signal (resazurin conversion) in presence of antibiotic (K. pneumoniae [1])	susceptibility call by standard microdilution assay (K. pneumoniae [2])	MIC90 (K. pneumoniae [2])	minimum antibiotic concentration that inhibits 90% of bacterial growth (MIC90) (E. coli [3])	electrochemical signal with increasing antibiotic concentration / susceptibility call (K. pneumoniae [4])	antibiotic concentration at which the bacteria are susceptible (electrochemical signal) (E. coli (UPEC); E. coli (UPEC) 100 cfu/μL in undiluted urine, 1 hour incubation at 37° C., FIG. 5C)	antibiotic concentration at which E. coli are susceptible (electrochemical signal) (E. coli [5])
CC1(C)S[C@@H]2[C@H](NC(=O)[C@H](N)c3ccccc3)C(=O)N2[C@H]1C(=O)O [ampicillin]	insufficient to inhibit the metabolism	fluorescence increases	resistant	> 100 µg/mL	16 µg/mL	approximately constant		
O=C(O)c1cn(C2CC2)c2cc(N3CCNCC3)c(F)cc2c1=O [ciprofloxacin]			susceptible	2 µg/mL (≈ 6.04 µM)	less than 0.1 μg/mL	susceptible	above 1 μg/mL	≥ 1 µg/mL
